Measurements: EP1191024A1, “Thiadiazines and their use as inhibitors of metalloproteinases” (Tschesche, Harald, priority 2000, dated 2002)
pIC50: −log10 of the molar value. Where two headings read alike, the source gives them in different places.

Experiments:
Assay in all cases: MMP microfluorometric profiling assay (fluorogenic Mca-peptide substrate)
Type in all cases: biochemical
MMP-1 = biological target: T1, MMP-1 (Homo sapiens, UniProt P03956)
T1 construct: MMP-1 from human rheumatoid synovial fibroblasts was purchased; purchased Calbiochem-Novabiochem Corporation, LaJolla; host or cells: human rheumatoid synovial fibroblasts
T1 sequence (P03956 100-469): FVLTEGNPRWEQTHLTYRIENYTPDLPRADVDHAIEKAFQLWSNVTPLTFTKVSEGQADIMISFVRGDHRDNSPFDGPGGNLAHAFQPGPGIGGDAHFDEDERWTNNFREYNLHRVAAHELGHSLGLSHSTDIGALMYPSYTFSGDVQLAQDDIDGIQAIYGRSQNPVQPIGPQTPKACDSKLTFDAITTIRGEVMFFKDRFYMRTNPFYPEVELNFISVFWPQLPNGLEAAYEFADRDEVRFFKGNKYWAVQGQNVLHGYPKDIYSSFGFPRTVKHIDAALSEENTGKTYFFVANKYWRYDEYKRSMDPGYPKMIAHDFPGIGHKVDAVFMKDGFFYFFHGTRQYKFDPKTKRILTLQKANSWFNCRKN
Method: (§1) The tested MMP enzymes were prepared more specifically in the laboratories of the applicants, with the exception of MMP-1. MMP-1 from human rheumatoid synovial fibroblasts was purchased from Calbiochem-Novabiochem Corporation, LaJolla. Preparation of the recombinant catalytic domain of human Gelatinase A (cdMMP-2): The catalytic domain of Pro-Gelatinase A was prepared using an E. coli expression system according to the method described by Kröger et al^[19]. The proenzyme was activated with 0.5 mM APMA at 37°C prior to use in the assay. Preparation of the recombinant catalytic domain of human neutrophile Collagenase (cdMMP-8^Met80): The enzyme was expressed in E. coli as an active variant by the method of Kleine et al^[20]. Preparation of PMNL-Gelatinase (MMP-9): Latent PMNL-pro-Gelatinase was prepared from human plasma buffy coat as described by Tschesche et al^[21]. PMNL-pro-Gelatinase was activated prior to use by incubation with Trypsin at 37°C for 10 min. Inactivation of Trypsin was accomplished with TKI. Preparation of the recombinant catalytic domain of human Macrophage Elastase (cdMMP-12): The catalytic domain of MMP-12 was expressed in E. coli. The overexpressed protein was isolated as inclusion bodies and the renatured protein was purified by affinity chromatography with a hydroxamate inhibitor coupled column as described^[22]. Preparation of the recombinant catalytic domain of human Collagenase-3 (cdMMP-13): Human pro-cdMMP-13 was prepared using an E. coli expression system according to the method described^[23]. The isolated pro-cdMMP-13 was activated prior to use by incubation with 5 mM HgCl2 for 2 h at 37°C. Preparation of the recombinant catalytic domain of Membrane-Type-1 MMP (cdMMP-14): The catalytic domain of MMP-14 was expressed in E. coli and was activated by autocatalysis^[24]. Preparation of the recombinant human ectodomain of Membrane-Type-1 MMP (ΔTM-MMP-14): The ectodomain of MMP-14 was expressed in Pichia Pastoris by the method of Roderfeld et al. and activated by yeast proteases (Furin-like-proteases) during maturation^[25].
(§2) The enzymatic activity was measured using a modified version of a resonance energy transfer fluorogenic assay as described^[26]. Progress curves were monitored by following the increase in fluorescence at 393 nm (λex = 328 nm), induced by the cleavage of the (7-methoxycoumarin-4-yl)acetyl-Pro-Leu-Gly-Leu-(3-[2,4-dinitro-phenyl]-L-2,3-diamino-propionyl)-Ala-Arg-NH2 (Mca-Pro-Leu-Gly-Leu-Dpa-Ala-Arg-NH2) fluorogenic substrate by MMPs. The fluorescent MCA-group is quenched by resonance energy transfer to the 2,4-dinitrophenyl group. Matrix metalloproteinases cleave this substrate at the Gly-Leu bond. Cleavage results in the loss of energy transfer and a large increase in fluorescence of the MCA group. This substrate is commercially available from Bachem, Switzerland.
(§3) Enzyme inhibition assays were carried out in MRB which consisted of 50 mM HEPES/NaOH, pH 7.0, 10 mM CaCl2 and 0,02% (w/v) PEG 8000 at 25°C. MMP microfluorometric profiling assay was done in white U-bottomed 96-well plates (Microfluor 1 White, Dynex, USA) with a final substrate concentration of 6 µM MCA-peptide, approximately 0.3 to 5 nM MMP with variable inhibitor concentrations and 2% DMSO vehicle. From a 1.5 mM stock (100% DMSO) the inhibitors were serially diluted with MRB to 15, 10, 5, 3, 1, 0.6, 0.3, 0.1, 0.05, 0.01 and 0.005 µM final assay concentration. Column 1, rows A through H, contained only DMSO for the "enzyme-only" wells in the assay. After preincubation for 30 min at 25°C the reaction was started by addition of substrate and the plate was read on a SpectraFluor Plus (Tecan, Germany) plate reader with excitation at 330 nm and emission at 405 nm with the gain set to 150. Each measurement was done in triplicate to ensure statistically significant results. […]

MMP-9 = biological target: T2, MMP-9 (Homo sapiens, UniProt P14780)
T2 construct: from tissue; host or cells: human plasma buffy coat (PMNL)
T2 sequence (P14780 107-707 limits assumed): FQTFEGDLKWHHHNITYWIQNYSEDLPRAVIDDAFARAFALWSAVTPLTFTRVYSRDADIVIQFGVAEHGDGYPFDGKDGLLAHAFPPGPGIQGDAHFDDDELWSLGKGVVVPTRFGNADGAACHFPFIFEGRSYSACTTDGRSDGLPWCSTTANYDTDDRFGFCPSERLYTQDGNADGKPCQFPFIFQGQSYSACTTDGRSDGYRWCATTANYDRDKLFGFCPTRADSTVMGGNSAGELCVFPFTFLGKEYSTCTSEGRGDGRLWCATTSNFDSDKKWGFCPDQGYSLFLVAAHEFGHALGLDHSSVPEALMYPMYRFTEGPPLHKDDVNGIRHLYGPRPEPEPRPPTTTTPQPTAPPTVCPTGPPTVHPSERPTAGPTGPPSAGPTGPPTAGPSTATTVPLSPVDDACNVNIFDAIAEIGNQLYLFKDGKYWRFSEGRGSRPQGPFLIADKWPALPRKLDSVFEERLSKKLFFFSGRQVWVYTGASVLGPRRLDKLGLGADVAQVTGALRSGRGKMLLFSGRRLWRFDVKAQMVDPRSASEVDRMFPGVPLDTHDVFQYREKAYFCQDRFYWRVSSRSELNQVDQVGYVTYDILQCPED
Method: as §1, §2, §3

cdMMP-14 = biological target: T3, cdMMP-14 (Homo sapiens, UniProt P50281)
T3 construct: made in house; host or cells: E. coli
Method: as §1, §2, §3

cdMMP-13 = cdMMP-13 (Homo sapiens, UniProt P45452)
Method: as §1, §2, §3

cdMMP-12 = biological target: T4, cdMMP-12 (Homo sapiens, UniProt P39900)
T4 construct: The catalytic domain of MMP-12 was expressed in E. coli; made in house; host or cells: E. coli
T4 sequence (P39900 106-263 limits assumed): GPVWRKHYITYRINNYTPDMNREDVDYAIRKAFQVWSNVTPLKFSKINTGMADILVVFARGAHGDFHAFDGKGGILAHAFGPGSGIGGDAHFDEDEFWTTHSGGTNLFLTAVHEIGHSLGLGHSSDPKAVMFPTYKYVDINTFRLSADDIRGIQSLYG
Method: as §1, §2, §3

Row | Compound | pIC50 (MMP-1) | pIC50 (MMP-9) | pIC50 (cdMMP-14) | pIC50 (cdMMP-13; read-out: cdMMP-13 IC50) | pIC50 (cdMMP-12) | percent inhibition (MMP-9; MMP-9, @ 15 (µM)) | pIC50 (cdMMP-13)
1 | C[C@H](NS(=O)(=O)c1ccccc1)C(=O)NC1=NN=C(c2ccc(C#N)cc2)CS1 [Example 3, (2S)-N-[5-(4-Cyanophenyl)-6H-1,3,4-thiadiazin-2-yl]-2-[(phenylsulfonyl)amino]-propanamide] | 6.35 | 6.48 | 6.34 | 6.41 | 6.35 |  | 
2 | O=C1C[C@@H](C(=O)NC2=NN=C(c3ccc(Cl)cc3)CS2)NC(=O)N1 [Example 30, (4S)-N-[5-(4-Chlorophenyl)-6H-1,3,4-thiadiazin-2-yl]-2,6-dioxohexahydro-4-pyrimidinecarboxamide] | 6.25 | 6.11 | 6.32 | 6.02 | 6.18 |  | 
3 | CC(C)[C@@H](NS(=O)(=O)c1ccccc1)C(=O)NC1=NN=C(c2ccc(Cl)cc2)CS1 [Example 2, (2R)-N-[5-(4-Chlorophenyl)-6H-1,3,4-thiadiazin-2-yl]-3-methyl-2-[(phenylsulfonyl)amino]butanamide] | 6.20 |  | 5.95 | < 4.82 | 6.37 | 40%^a)@ 15 | 
4 | C[C@H](NS(=O)(=O)c1ccccc1)C(=O)NC1=NN=C(c2ccc(C(F)(F)F)cc2)CS1 [Example 4, (2S)-2-[(Phenylsulfonyl)amino]-N-{5-[4-(trifluormethyl)phenyl]-6H-1,3,4-thiadiazin-2-yl}propanamide] | 6.31 | 5.98 | 5.96 |  | 6.44 |  | 5.99
5 | C[C@@H](NS(=O)(=O)c1ccccc1)C(=O)NC1=NN=C(c2ccc(F)cc2)CS1 [Example 14, (2R)-N-[5-(4-Fluorophenyl)-6H-1,3,4-thiadiazin-2-yl]-2-[(phenylsulfonyl)amino]-propanamide] | 6.14 | 6.67 | 6.14 | 6.27 | 6.37 |  | 
